Assay results: a melting point compilation (Tetko et al.; mined from patent text by program, amines drawn as free bases though some values may be those of a salt)

Structure (SMILES) | melting point [°C]
O=C(C=Cc1ccc(OC(F)(F)F)cc1)C=Cc1ccc(OC(F)(F)F)cc1 | 112 to 115
CCOC(=O)COc1ccc(OCc2ccccc2)cc1OCc1ccccc1 | 62 to 64
CCc1cccc(-c2ccc(S(=O)(=O)N3c4ccccc4CC3C(=O)NCc3ccc(CC(=O)O)cc3)cc2)c1 (centres undefined) | 98
O=C(CF)CCCN1C(=O)c2ccccc2C1=O | 92
CCn1c(C(c2cccc(F)c2)c2cccc(F)c2)nc(-c2ccncc2)c1-c1ccc(Cl)cc1 | 184 to 186
COc1ccc2c(=O)c(-c3ccccc3)c(SCc3ccccn3)oc2c1 | 168 to 169
Cc1cccc(NC(=O)NC2N=C(c3ccccc3F)c3ccccc3N(CC(=O)O)C2=O)c1 (racemic) | 167 to 169
O=C(O)c1cccc(-n2ncc3c2CCc2ccccc2-3)c1 | 273 to 275
CCON=C(CC)C1=C(OC(=O)c2ccccc2)CC(c2c(C)cc(C)cc2C)CC1=O (centres undefined) | 94 to 95.5
CCC1(CCCCN2CCN(c3ccccn3)CC2)C(=O)Nc2ccc(Cl)cc21 (centres undefined) | 154 to 156
CC(=O)C1=CCC2C3CCC4CC=CCC4(C)C3CCC12C (centres undefined) | 143 to 145
CN(C)C=NS(=O)(=O)c1cc(CCNC(=O)C(F)(F)F)ccc1OCC(F)(F)F | 130
CC(C)CC(=O)c1cn(C)cc(-c2cccc(C(F)(F)F)c2)c1=O | 110 to 112
O=[N+]([O-])c1cc(C(F)(F)F)ccc1C(Br)c1cnoc1C1CC1 (centres undefined) | 146
CCOC(=O)CCCCCCC1C(=O)NC(=O)N1CCC(=O)C1CCCCC1 (centres undefined) | 77.5 to 78.5
CCCCN(CCCC)c1ccc(C=CC2=CC(=CC=CC3=C(C#N)C(=C(C#N)C#N)OC3(c3ccccc3)C(F)(F)F)CC(C)(C)C2)c(OC)c1 (centres undefined) | 164 to 166
CCC(Oc1c(Br)cc(-c2ccc(-c3c(Cc4ccccc4)oc4ccccc34)cc2)cc1Br)C(=O)O (centres undefined) | 79 to 80
CCCCCCCCCCCCCCCCCCN(CCCCCCCCCCCCCCCCCC)Cc1ccc(CN(CCO)CCO)cc1 | 49 to 50

Structure (SMILES) | melting point [°C]
C[C@H](COc1ccc(C=C2SC(=S)N(CC(=O)O)C2=O)cc1O[C@@H](c1ccccc1)C(F)(F)F)c1ccccc1 | 73 to 80
Cc1[nH]c(=O)n(-c2cc(OC(C)C)c(Cl)cc2F)c(=O)c1F | 162 to 164
CCN(CC)CCNC(=O)c1cccc2c(=O)c3c(I)cccc3[nH]c12 | 144 to 146
CN(C)c1cccc(OCC(=O)NCCO[N+](=O)[O-])c1 | 62 to 63
COc1cc(Nc2ncc([N+](=O)[O-])c(-c3ccccc3)n2)cc(OC)c1OC | 103 to 105
CC(C)(c1ccc([N+](=O)[O-])cc1)c1ccc([N+](=O)[O-])cc1 | 135 to 137
CC(=Nc1ccc(NC(=O)[C@@H](N)CC(C)C)cc1)N(C)C | 106 to 107
Clc1ccc(N2CCN(CCCc3c4c(nn3-c3ccc(Cl)cc3)CCCC4)CC2)cc1 | 129 to 131
CCOC(=O)c1ccc(-c2ccc(-c3ccccc3OCOC)c(-c3ccc4c(c3)C(C)(C)CCC4(C)C)c2)cc1 | 132 to 135
Cc1cn(N)c(=O)n1C | 115 to 119
CC(C)n1ccc(-c2ccc([C@H](C)N3CC[C@](CC(C)(C)O)(c4ccccc4)OC3=O)cc2)cc1=O | 134 to 139
CN(C)Cc1c[nH]c2c(F)cccc12 | 133 to 137
C#CCN1CCN(C2Cc3ccc(C)cc3Sc3ccc(F)cc32)CC1 (centres undefined) | 168 to 174
COc1cc(C)c(C(=O)c2c(Cl)cccc2Cl)c(OC)c1OC | 92
CC1(CC(=O)O)CCCCCC1=O (centres undefined) | 43 to 45
O=C(O)c1c(-c2cc(Cl)cc(Cl)c2)c2ccccc2n1Cc1cc2c(cc1Cl)OCO2 | 221 to 222
COc1ccc(C2=Cc3ccc(OCc4ccccc4)cc3OC2)cc1 | 152 to 154
O=C(NC1N=C(c2ccccc2)c2ccccc2NC1=O)c1ccc(-c2ccccc2)cc1 (racemic) | 274 to 276

More lines, now with the values ahead:

melting point [°C] | Structure (SMILES)
121 to 126 | CN(C(=O)OC(C)(C)C)[C@H](Cc1ccc2ccccc2c1)C(=O)N1CCc2ccccc2C1
213 | COc1ccc(OCC(=O)O)c(C(Nc2ccc(C(=N)N)cc2)C(=O)O)c1 (racemic)
118 to 119 | CCCCOc1c(CNC(=O)OC(C)(C)C)n(CC2CC2)c(=O)c2ccc(Br)cc12
105 to 106 | CC(C)Oc1cc(COc2cc(CCC(=O)O)n(C)n2)cc(COc2ccc(Cl)cc2Cl)c1
64 to 66 | CCCOc1nc2ccc(Cl)cc2c(=O)n1CCC
96 to 98 | CCOC(=O)C1CC(=O)c2c(OC)ccc(OC)c2C1 (centres undefined)
74 to 77 | CC(=S)NC[C@H]1CN(c2ccc3c(c2)OC[C@@H](C)N3)C(=O)O1
219 to 220 | CCCSc1sc(C(N)=O)c2c1-c1nn(C(C)=O)cc1CC2
276 to 278 | C=Cc1cc(O)cc2nc(-c3ccc(O)c(F)c3F)oc12
209 | O=C(O)c1ccc(OCCCC2CCN(c3ccc(Cl)nn3)CC2)cc1
119 to 122 | CN1C(=O)CCC(C)(C)c2cc(N)ccc21
113 to 114 | CSC(Oc1cc(Cl)cc(Cl)c1)C(=O)NC(C)(C)C#CCCCC#N (centres undefined)
87 to 92 | CC1CCC2C(=O)N(NC(=O)CCc3cc(C(C)(C)C)c(O)c(C(C)(C)C)c3)C(=O)C2C1 (centres undefined)
140 to 141 | Cc1cc(CO)cc(Oc2nc(Cl)nc(Cl)c2C(C)C)c1
195 to 197 | N#Cc1nc(N)c2ncn(C3OC(CO)C(O)C3O)c2n1 (centres undefined)
163 to 165 | CCOCc1nc(N)c(N=O)c(=O)[nH]1
245 | O=C(CC12CC3CC(CC(C3)C1)C2)Nc1ccc2cn[nH]c2c1

melting point [°C] | Structure (SMILES)
167 | CCOCCC(=O)OC1(C(=O)CO)CCC2C3CC(C)C4=CC(=O)C=CC4(C)C3C(O)CC21C (centres undefined)
210 | CC(=O)Nc1ncc(SCC(=O)O)s1
81 to 82 | ClCCc1nnc2ccccc2c1Cl
103 to 104 | CCc1cnc(-n2cc(CCCOc3c(CC(=O)O)cccc3OC)c(C(C)C)n2)nc1
117 to 118 | COc1ccc2cc(-c3cccnc3)cc(C)c2n1
58 to 60 | OCC(F)(F)c1ccccn1
118 to 127 | CC(n1cnc2cc(-c3ccc(F)cc3)sc2c1=O)C(O)(Cn1cncn1)c1ccc(F)cc1F (centres undefined)
160 to 162 | CC1(C)CC(=Cc2nc3cc(O)ccc3o2)CC(C)(C)C1
148 to 150 | Cc1nc(Cl)c2c(n1)N(c1c(C)cc(Br)cc1C)C(=O)C2C (centres undefined)
88 to 91 | C=CC1C2OCC(O2)C(OCc2ccccc2)C1O (centres undefined)
335 | CC(C)(C)NC(=O)Nc1nc2nc(N)ncc2cc1-c1c(Cl)cccc1Cl
192 to 194 | CCOC(=O)c1c(C(=O)OCC)c(-c2ccc3c(c2)OCO3)c2c3c(ccc2c1O)OCO3
195 to 197 | Nc1sc(-c2ccc(Cl)s2)c(CN(C2CCCCC2)C2CCCCC2)c1C(=O)c1ccc(Cl)cc1
106 to 108 | CCNC(=O)c1cc(N=C=S)ccc1[Si](C)(C)C
122 to 125 | Cc1cc(F)ccc1NC(=O)CCC#Cc1cccc(CF)n1
145 to 147 | Cn1nc(C(F)(F)F)n(-c2ccc(N)cc2Cl)c1=S
